{"source": "ChEMBL document CHEMBL1124314", "about": "“Development of phosphonate derivatives of gadolinium chelates for NMR imaging of calcified soft tissues” (J Med Chem, 1989)", "key": {"[1]": {"species_on_record": "Rattus norvegicus", "test": "Biodistribution in normal rat lung in the presence of 0.005 M Gd/0.01 M lig at 2 hr", "format": "ADME, organism-based", "details": "in vivo"}, "[2]": {"species_on_record": "Rattus norvegicus", "test": "Biodistribution in normal rat muscle in the presence of NAC Gd 0.01 M lig at 2 hr", "format": "ADME, organism-based, Muscle tissue", "details": "in vivo"}, "[3]": {"species_on_record": "Rattus norvegicus", "test": "Biodistribution in normal rat spleen in the presence of 0.01 M Gd/0.05 M lig", "format": "ADME, organism-based", "details": "in vivo"}, "[4]": {"test": "Ratio of uptake of [GD] in bone 1 hr post injection with 0.01 to that of muscle", "format": "functional"}, "[5]": {"species_on_record": "Rattus norvegicus", "test": "Uptake of [GD] in bone 1 hr post injection with 0.002 of the compound", "format": "functional, Bone element"}, "[6]": {"species_on_record": "Rattus norvegicus", "test": "Biodistribution in normal rat bone in the presence of 0.01 M Gd/0.05 M lig", "format": "ADME, organism-based, Bone element", "details": "in vivo"}, "[7]": {"test": "Ratio of uptake of [GD] in bone 1 hr post injection with 0.01 to that of blood", "format": "functional"}, "[8]": {"species_on_record": "Rattus norvegicus", "test": "Uptake of [GD] in bone 1 h post injection with 0.01 of the compound", "format": "functional, Bone element"}, "[9]": {"species_on_record": "Rattus norvegicus", "test": "Biodistribution in normal rat bone in the presence of 0.005 M Gd/0.01 M lig at 2 hr", "format": "ADME, organism-based, Bone element", "details": "in vivo"}, "[10]": {"test": "Ratio of uptake of [GD] in bone 1 hr post injection with 0.002 to that of muscle", "format": "functional"}, "[11]": {"test": "Ratio of uptake of [GD] in bone 1 hr post injection with 0.025 to that of blood", "format": "functional"}, "[12]": {"species_on_record": "Rattus norvegicus", "test": "Biodistribution in normal rat liver in the presence of 0.005 M Gd/0.01 M lig at 2 hr", "format": "ADME, organism-based", "details": "in vivo"}, "[13]": {"species_on_record": "Rattus norvegicus", "test": "Biodistribution in normal rat heart in the presence of 0.01 M Gd/0.05 M lig", "format": "ADME, organism-based", "details": "in vivo"}, "[14]": {"species_on_record": "Rattus norvegicus", "test": "Biodistribution in normal rat muscle in the presence of 0.005 M Gd/0.01 M lig at 2 hr", "format": "ADME, organism-based, Muscle tissue", "details": "in vivo"}, "[15]": {"species_on_record": "Rattus norvegicus", "test": "Biodistribution in normal rat heart in the presence of 0.005 M Gd/0.01 M lig at 2 hr", "format": "ADME, organism-based", "details": "in vivo"}, "[16]": {"test": "Ratio of uptake of [GD] in bone 1 hr post injection with 0.025 to that of muscle", "format": "functional"}, "[17]": {"species_on_record": "Rattus norvegicus", "test": "Biodistribution in normal rat spleen in the presence of 0.005 M Gd/0.01 M lig at 2 hr", "format": "ADME, organism-based", "details": "in vivo"}, "[18]": {"species_on_record": "Rattus norvegicus", "test": "Biodistribution in normal rat kidney in the presence of 0.005 M Gd/0.01 M lig at 2 hr", "format": "ADME, organism-based", "details": "in vivo"}, "[19]": {"species_on_record": "Rattus norvegicus", "test": "Uptake of [GD] in bone 1 hr post injection with 0.025 of the compound", "format": "functional, Bone element"}, "[20]": {"species_on_record": "Rattus norvegicus", "test": "Biodistribution in normal rat blood in the presence of NAC Gd 0.01 M lig at 2 hr", "format": "ADME, organism-based", "details": "in vivo"}, "[21]": {"species_on_record": "Rattus norvegicus", "test": "Biodistribution in normal rat lung in the presence of NAC Gd 0.01 M lig at 2 hr", "format": "ADME, organism-based", "details": "in vivo"}, "[22]": {"test": "Ratio of uptake of [GD] in bone 1 hr post injection with NCA GD dose to that of blood", "format": "functional"}, "[23]": {"species_on_record": "Rattus norvegicus", "test": "Biodistribution in normal rat liver in the presence of NAC Gd 0.01 M lig at 2 hr", "format": "ADME, organism-based", "details": "in vivo"}, "[24]": {"species_on_record": "Rattus norvegicus", "test": "Biodistribution in normal rat lung in the presence of 0.01 M Gd/0.05 M lig", "format": "ADME, organism-based", "details": "in vivo"}, "[25]": {"species_on_record": "Rattus norvegicus", "test": "Uptake of [GD] in bone 1 hr post injection with NCA GD dose", "format": "functional, Bone element"}, "[26]": {"species_on_record": "Rattus norvegicus", "test": "Biodistribution in normal rat liver in the presence of 0.01 M Gd/0.05 M lig", "format": "ADME, organism-based", "details": "in vivo"}, "[27]": {"test": "Ratio of uptake of [GD] in bone 1 hr post injection with 0.002 to that of blood", "format": "functional"}, "[28]": {"species_on_record": "Rattus norvegicus", "test": "Biodistribution in normal rat blood in the presence of 0.01 M Gd/0.05 M lig", "format": "ADME, organism-based", "details": "in vivo"}, "[29]": {"species_on_record": "Rattus norvegicus", "test": "Biodistribution in normal rat muscle in the presence of 0.01 M Gd/0.05 M lig", "format": "ADME, organism-based, Muscle tissue", "details": "in vivo"}, "[30]": {"species_on_record": "Rattus norvegicus", "test": "Biodistribution in normal rat kidney in the presence of NAC Gd 0.01 M lig at 2 hr", "format": "ADME, organism-based", "details": "in vivo"}, "[31]": {"species_on_record": "Rattus norvegicus", "test": "Biodistribution in normal rat kidney in the presence of 0.01 M Gd/0.05 M lig", "format": "ADME, organism-based", "details": "in vivo"}, "[32]": {"species_on_record": "Rattus norvegicus", "test": "Biodistribution in normal rat heart in the presence of NAC Gd 0.01 M lig at 2 hr", "format": "ADME, organism-based", "details": "in vivo"}, "[33]": {"test": "Uptake of [GD] in bone 1 hr post injection with NCA GD dose to that of muscle", "format": "functional, Muscle tissue"}, "[34]": {"species_on_record": "Rattus norvegicus", "test": "Biodistribution in normal rat bone in the presence of NAC Gd 0.01 M lig at 2 hr", "format": "ADME, organism-based, Bone element", "details": "in vivo"}, "[35]": {"species_on_record": "Rattus norvegicus", "test": "Biodistribution in normal rat blood in the presence of 0.005 M Gd/0.01 M lig at 2 hr", "format": "ADME, organism-based", "details": "in vivo"}, "[36]": {"species_on_record": "Rattus norvegicus", "test": "Biodistribution in normal rat spleen in the presence of NAC Gd 0.01 M lig at 2 hr", "format": "ADME, organism-based", "details": "in vivo"}, "[37]": {"species_on_record": "Rattus norvegicus", "test": "Biodistribution in rat spleen in the presence of NCAGd/0.01 M lig", "format": "ADME, organism-based", "details": "in vivo"}, "[38]": {"species_on_record": "Rattus norvegicus", "test": "Biodistribution in rat bone in the presence of NCAGd/0.01 M lig", "format": "ADME, organism-based, Bone element", "details": "in vivo"}, "[39]": {"species_on_record": "Rattus norvegicus", "test": "Biodistribution in rat liver by in the presence of NCAGd/0.01 M lig", "format": "ADME, organism-based", "details": "in vivo"}, "[40]": {"test": "Ratio of uptake of [GD] in bone 1 hr post injection with 0.01 (N) to that of muscle"}, "[41]": {"species_on_record": "Rattus norvegicus", "test": "Biodistribution in rat blood in the presence of NCAGd/0.01 M lig", "format": "ADME, organism-based", "details": "in vivo"}, "[42]": {"species_on_record": "Rattus norvegicus", "test": "Biodistribution in rat heart in the presence of NCAGd/0.01 M lig", "format": "ADME, organism-based", "details": "in vivo"}, "[43]": {"species_on_record": "Rattus norvegicus", "test": "Biodistribution in rat kidney in the presence of NCAGd/0.01 M lig", "format": "ADME, organism-based", "details": "in vivo"}, "[44]": {"species_on_record": "Rattus norvegicus", "test": "Biodistribution in rat muscle in the presence of NCAGd/0.01 M lig", "format": "ADME, organism-based, Muscle tissue", "details": "in vivo"}, "[45]": {"species_on_record": "Rattus norvegicus", "test": "Uptake of [GD] in bone 1 hr post injection with 0.01 (N) of the compound"}, "[46]": {"test": "Ratio of uptake of [GD] in bone 1 hr post injection with 0.01 (N) to that of blood"}}}
{"smiles": "O=P(O)(O)C(N(CCN(C(P(=O)(O)O)P(=O)(O)O)C(P(=O)(O)O)P(=O)(O)O)C(P(=O)(O)O)P(=O)(O)O)P(=O)(O)O", "values": [{"measurement": "ID/organ", "setting": "[1]", "result": 0.1, "unit": "%"}, {"measurement": "ID/organ", "setting": "[2]", "result": 0.3, "unit": "%"}, {"measurement": "ID/organ", "setting": "[3]", "result": 0.009, "unit": "%"}, {"measurement": "Ratio", "setting": "[4]", "result": 27.7}, {"measurement": "ID", "setting": "[5]", "result": 53.1, "unit": "%"}, {"measurement": "ID/organ", "setting": "[6]", "result": 35, "unit": "%"}, {"measurement": "Ratio", "setting": "[7]", "result": 37.3}, {"measurement": "ID", "setting": "[8]", "result": 50.1, "unit": "%"}, {"measurement": "ID/organ", "setting": "[9]", "result": 42.9, "unit": "%"}, {"measurement": "Ratio", "setting": "[10]", "result": 43.5}, {"measurement": "Ratio", "setting": "[11]", "result": 20.4}, {"measurement": "ID/organ", "setting": "[12]", "result": 1.6, "unit": "%"}, {"measurement": "ID/organ", "setting": "[13]", "result": 0.13, "unit": "%"}, {"measurement": "ID/organ", "setting": "[14]", "result": 2.4, "unit": "%"}, {"measurement": "ID/organ", "setting": "[15]", "result": 0.04, "unit": "%"}, {"measurement": "Ratio", "setting": "[16]", "result": 12.4}, {"measurement": "ID/organ", "setting": "[17]", "result": 0.02, "unit": "%"}, {"measurement": "ID/organ", "setting": "[18]", "result": 0.4, "unit": "%"}, {"measurement": "ID", "setting": "[19]", "result": 35.4, "unit": "%"}, {"measurement": "ID/organ", "setting": "[20]", "result": 0.045, "unit": "%"}, {"measurement": "ID/organ", "setting": "[21]", "result": 0.02, "unit": "%"}, {"measurement": "Ratio", "setting": "[22]", "result": 91.8}, {"measurement": "ID/organ", "setting": "[23]", "result": 0.22, "unit": "%"}, {"measurement": "ID/organ", "setting": "[24]", "result": 0.09, "unit": "%"}, {"measurement": "ID", "setting": "[25]", "result": 54.8, "unit": "%"}, {"measurement": "ID/organ", "setting": "[26]", "result": 0.5, "unit": "%"}, {"measurement": "Ratio", "setting": "[27]", "result": 73.3}, {"measurement": "ID/organ", "setting": "[28]", "result": 0.7, "unit": "%"}, {"measurement": "ID/organ", "setting": "[29]", "result": 2, "unit": "%"}, {"measurement": "ID/organ", "setting": "[30]", "result": 0.29, "unit": "%"}, {"measurement": "ID/organ", "setting": "[31]", "result": 0.38, "unit": "%"}, {"measurement": "ID/organ", "setting": "[32]", "result": 0.004, "unit": "%"}, {"measurement": "Ratio", "setting": "[33]", "result": 51.2}, {"measurement": "ID/organ", "setting": "[34]", "result": 47, "unit": "%"}, {"measurement": "ID/organ", "setting": "[35]", "result": 1.7, "unit": "%"}, {"measurement": "ID/organ", "setting": "[36]", "result": 0.004, "unit": "%"}]}
{"smiles": "CC(CO)NCCNC(C)C(C)O", "note": "(centres undefined)", "values": [{"measurement": "ID/organ", "setting": "[37]", "result": 0.13, "unit": "%"}, {"measurement": "Ratio", "setting": "[4]", "result": 1.22, "unit": "%"}, {"measurement": "ID/organ", "setting": "[38]", "result": 59.6, "unit": "%"}, {"measurement": "ID", "setting": "[8]", "result": 6.88, "unit": "%"}, {"measurement": "ID/organ", "setting": "[39]", "result": 21.5, "unit": "%"}, {"measurement": "Ratio", "setting": "[40]", "result": 1.55, "unit": "%"}, {"measurement": "ID/organ", "setting": "[41]", "result": 2.31, "unit": "%"}, {"measurement": "ID/organ", "setting": "[42]", "result": 0.315, "unit": "%"}, {"measurement": "ID/organ", "setting": "[43]", "result": 2.75, "unit": "%"}, {"measurement": "ID/organ", "setting": "[44]", "result": 6.25, "unit": "%"}, {"measurement": "ID", "setting": "[25]", "result": 59.6, "unit": "%"}, {"measurement": "ID", "setting": "[45]", "result": 3.33, "unit": "%"}, {"measurement": "Ratio", "setting": "[46]", "result": 0.18, "unit": "%"}]}
